Measurements reported in patent US20260049337A1, “A R[…] A[…] OF INHIBITING TUMOR P[…] […] TIME IN TUMOR-BEARING I[…] USE THEREOF” (NANJING VIROTHER BIOPHARMACEUTICAL CO., LTD., priority 2022, published 2026).

Columns and labels:
[1] = test system: LCN2 expression in CD8+ T cells; test: Panc02 cells cocultured with CD8+ T cells, flow cytometry for LCN2; format: cell-based; details: coculture with Panc02 for 24 h; vs coculture without GLP1(7-36), p<0.01
Protocol: Panc02 cells were cocultured with CD8+ T cells with or without GLP1(7-36) for 24 h, then T cells were subjected to flow cytometry for determination of LCN2 expression (FIG. 28A).

[2] = test system: LCN2 expression in CD8+ T cells; test: CD8+ T cells cultivated with Panc02 supernatant, FACScan for Lcn2; format: cell-based; details: 24 h, vs absence of agonist, p<0.001
Protocol: Panc02 cells were cultivated in DMEM for 48 h, then supernatant was harvested and added into CD8+ T cells for further 24 h cultivation in the presence or absence of GLP1(7-36) or GLP1 analogue (Liraglutide) followed by FACScan for Lcn2 determination (FIG. VI(B)-3B).

GLP-1(7-36): GLP-1 receptor agonist peptide, SEQ ID NO: 1, HAEGTFTSDVSSYLEGQAAKEFIAWLVKGR
Lcn2 expression in CD8+ T cells [1]: statistically significantly reduced | Lcn2 expression in CD8+ T cells [2]: statistically significantly reduced
